Data published in US5059624A, “Guanidine derivatives having hypotensive activity, composition containing them and process for obtaining them” (Consiglio Nazionale Delle Ricerche, priority 1988, dated 1991).
Read-outs that look alike come from different tables or passages of the source.

System: male Wistar rats
Experimental: In order to check its activity, diguanido-II was dissolved in a 0.9 % sodium chloride solution and administered through "rapid" i.v. route in male Wistar rats, under general anaesthesia obtained by means of 10% ethyl urethan (i ml/hg).
The active ingredients called guanido-III, -IV, -V, as well as agmatine and galegine, were also tested, after having been administered through "rapid" i.v. route in male Wistar rats (weighing average 280±5 g) under general anaesthesia obtained by means of 10% ethyl uretan (1 ml/hg, i.p.). The general experimental conditions were exactly the same as previously mentioned for guanido-I and diguanido-II, so that the cardiovascular and respiratory effects could be compared.
The parameters measured are as follows: systolic and diastolic systemic arterial pressure (AP), heart rate (HR), maximum rate of increase in the left ventricular isovolumetric pressure (dp/dt), respiratory frequency (RF) and tidal volume (TV). The doses (in μg/kg body weight, referred to the active substance) varied from 50 μg/kg to 6,400 μg/kg (ratio=2.0); in some cases higher does have been employed.

## CC(C)=CCNC(=N)NCCCCN [guanido-III, prenylagmatine]
200 μg/kg i.v.
  Δ AP DIAST: -2 ± 0.2 mmHg
  Δ AP SYST: -2 ± 0.3 mmHg
  Δ HR: 0 beats/min
  Δ RF: +7 ± 4%
  Δ TV: +9 ± 2%
  Δ dp/dt: +214 ± 20 mmHg/sec
400 μg/kg i.v.
  Δ AP DIAST: -2 ± 0.6 mmHg
  Δ AP SYST: -3.5 ± 1.5 mmHg
  Δ HR: 0 beats/min
  Δ RF: +7 ± 3%
  Δ TV: +17 ± 6%
  Δ dp/dt: +321 ± 17 mmHg/sec
800 μg/kg i.v.
  Δ AP DIAST: -13 ± 4 mmHg
  Δ AP SYST: -11 ± 1 mmHg
  Δ HR: -15 ± 3 beats/min
  Δ RF: +10 ± 4%
  Δ TV: +33 ± 9%
  Δ dp/dt: +1356 ± 428 mmHg/sec
1600 μg/kg i.v.
  Δ AP DIAST: -21 ± 4 mmHg
  Δ AP SYST: -13 ± 2 mmHg
  Δ HR: -23 ± 10 beats/min
  Δ RF: +18 ± 3%
  Δ TV: +21 ± 7%
  Δ dp/dt: +2157 ± 655 mmHg/sec
3200 μg/kg i.v.
  Δ AP DIAST: -36 ± 6 mmHg
  Δ AP SYST: -36 ± 7 mmHg
  Δ HR: -26 ± 8 beats/min
  Δ RF: -42 ± 9%
  Δ TV: -73 ± 18%
6400 μg/kg i.v.
  Δ AP DIAST: -85 ± 3 mmHg
  Δ AP SYST: -112 ± 3 mmHg
  Δ HR: -310 ± 25 beats/min
  Δ RF: -100%
  Δ TV: -100%
  Δ dp/dt: -5422 ± 514 mmHg/sec
i.v., rat
  cardiovascular and respiratory effects (in words): systolic and diastolic arterial hypotension (well evident starting from the dose of 800 μg/kg), bradycardia, increase of dp/dt (up to the dose of 3,200 μg/kg). increase of RF and TV (up to the dose of 1,600 μg/kg)
rat, in vivo, iv
  death of the tested animals: caused death of the tested animals

## CC(C)=CCN=C(N)N [galegine, prenylguanidine, reference compound]
50 μg/kg i.v.
  Δ AP DIAST: -19 ± 3 mmHg
  Δ AP SYST: -18 ± 1 mmHg
  Δ HR: -32 ± 6 beats/min
  Δ RF: +38 ± 4%
  Δ TV: +43 ± 4%
  Δ dp/dt: +1498 ± 131 mmHg/sec
100 μg/kg i.v.
  Δ AP DIAST: -28 ± 6 mmHg
  Δ AP SYST: -22 ± 2 mmHg
  Δ HR: -46 ± 7 beats/min
  Δ RF: +68 ± 4%
  Δ TV: +63 ± 5%
  Δ dp/dt: +1712 ± 90 mmHg/sec
200 μg/kg i.v.
  Δ AP DIAST: -29 ± 5 mmHg
  Δ AP SYST: -23 ± 5 mmHg
  Δ HR: -94 ± 6 beats/min
  Δ RF: +69 ± 7%
  Δ TV: +64 ± 7%
  Δ dp/dt: +1797 ± 178 mmHg/sec
400 μg/kg i.v.
  Δ AP DIAST: -26 ± 4 mmHg
  Δ AP SYST: -25 ± 6 mmHg
  Δ HR: -107 ± 4 beats/min
  Δ RF: +76 ± 9%
  Δ TV: +87 ± 9%
  Δ dp/dt: +2568 ± 314 mmHg/sec
800 μg/kg i.v.
  Δ AP DIAST: -26 ± 4 mmHg
  Δ AP SYST: -27 ± 4 mmHg
  Δ HR: -106 ± 11 beats/min
  Δ RF: +70 ± 8%
  Δ TV: +31 ± 3%
  Δ dp/dt: +1926 ± 223 mmHg/sec
1600 μg/kg i.v.
  Δ AP DIAST: -25 ± 4 mmHg
  Δ AP SYST: -22 ± 4 mmHg
  Δ HR: -85 ± 5 beats/min
  Δ RF: +133 ± 14%
  Δ TV: +55 ± 6%
  Δ dp/dt: +1724 ± 104 mmHg/sec
3200 μg/kg i.v.
  Δ AP DIAST: -36 ± 4 mmHg
  Δ AP SYST: -22 ± 3 mmHg
  Δ HR: -98 ± 16 beats/min
  Δ RF: +85 ± 6%
  Δ TV: +40 ± 7%
  Δ dp/dt: +2996 ± 202 mmHg/sec
6400 μg/kg i.v.
  Δ AP DIAST: -36 ± 2 mmHg
  Δ AP SYST: -18 ± 4 mmHg
  Δ HR: -42 ± 4 beats/min
  Δ RF: +37 ± 11%
  Δ TV: +29 ± 8%
  Δ dp/dt: +4494 ± 371 mmHg/sec
12800 μg/kg i.v.
  Δ AP DIAST: -42 ± 3 mmHg
  Δ AP SYST: -22 ± 2.5 mmHg
  Δ HR: -15 ± 7 beats/min
  Δ RF: +23 ± 7%
  Δ TV: +25 ± 5%
  Δ dp/dt: +6420 ± 417 mmHg/sec
25600 μg/kg i.v.
  Δ AP DIAST: -30 ± 9 mmHg
  Δ AP SYST: -19 ± 3 mmHg
  Δ HR: -21 ± 6 beats/min
  Δ RF: -34 ± 12%
  Δ TV: -57 ± 8%
  Δ dp/dt: +6471 ± 274 mmHg/sec
51200 μg/kg i.v.
  Δ AP DIAST: -50 ± 7 mmHg
  Δ AP SYST: -80 ± 8 mmHg
  Δ HR: -298 ± 19 beats/min
  Δ RF: -100%
  Δ TV: -100%
  Δ dp/dt: -4708 ± 312 mmHg/sec
25,600 and 51,200 ug/kg i.v., rat
  death of the tested animals at extremely high doses: primary respiratory depression (reduction of RF and TV) and a subsequent arterial hypotension. bradycardia and decrease in the cardiac inotropism (dp/dt), with death of the tested animals
